Experimental data reported in patent publication US9512139B2, “Conformationally constrained, fully synthetic macrocyclic compounds” (POLYPHOR AG, priority 2009, dated 2016).

What was measured:
in vitro [1] = assay type: in vitro ADME, mouse; conditions: plasma; for Plasma Stability 240 min mouse [% remain.]: 4 h
[2] = Metabolic stability assay, CD-1 mouse microsomes; assay type: in vitro ADME; conditions: microsomes; for Metabolic Stability 60 min mouse [% remain.]: 1 h; for half-life at 10 µM: both sexes
Experimental: (§1) 4. Plasma and Metabolic Stability Assays
(§2) The assays were conducted according to literature precedents (F. P. Guengerich, Analysis and Characterization of Enzymes; in: Principles and Methods of Toxicology; A. W. Hayes (Ed.) Raven Press: New York, 1989, 777-813; R. Singh et al., In vitro metabolism of a potent HIV-protease inhibitor (141W94) using rat, monkey and human liver S9, Rapid Commun. Mass Spectrom. 1996, 10, 1019-1026).
(§3) Metabolic Stability Assay
(§4) Microsomes from a human 50 donor mixed gender pool and 1:1 mixtures of microsomes from CD-1 mouse single-gender pools are purchased from Celsis (Belgium). The enzymatic reaction is performed in a buffer containing an NADPH regeneration system and microsomes with the following end concentrations: 100 mM potassium phosphate buffer (all from Sigma), 1 mg/mL glucose-6-phosphate, 1 mg/mL β-nicotinamide adenine dinucleotide phosphate (NADP), 0.65 mg/mL magnesium chloride, 0.8 units/mL of glucose-6-phosphate dehydrogenase (prediluted with 5 mM citrate buffer), 10 μM compound and 1 mg/ml microsomal protein. Compounds are incubated at 37° C. in duplicates and samples are taken after 0, 20 and 60 minutes. After acetonitrile precipitation (2 volumes) and HPLC/MS/MS analysis metabolic turnover is expressed in % of the initial 0 minutes value and half life T½ (min) is calculated. Verapamil for human and propranolol for mouse are used as reference and are assayed with every experimental set.

[3] = Metabolic stability assay, human microsomes; assay type: in vitro ADME; conditions: human, microsomes; for Metabolic Stability 60 min hum [% remain.]: 1 h; for half-life at 10 µM: both sexes
Experimental: as §1, §2, §3, §4

in vitro [4] = assay type: in vitro ADME, human; conditions: human, plasma; for Plasma Stability 240 min hum [% remain.]: 4 h
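For Plasma Stability 240 min mouse [% remain.] in this document: sodium citrate stabilized mouse plasma, parent compound quantified by HPLC/MS/MS relative to its peak area at time zero, run in triplicate.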
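For Plasma Stability T½ [min] mouse in this document: sodium citrate stabilized mouse plasma, parent compound quantified by HPLC/MS/MS relative to its peak area at time zero, run in triplicate.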

| Plasma Stability T½ [min] mouse (in vitro [1]; both, CD-1, mouse, 10 µM) [min] | Plasma Stability 240 min mouse [% remain.] (in vitro [1]; both, CD-1, mouse, 10 µM) | Metabolic Stability T½ [min] mouse ([2]; both, CD-1, mouse, 10 µM) [min] | Metabolic Stability 60 min mouse [% remain.] ([2]; both, CD-1, mouse, 10 µM) | Metabolic Stability T½ [min] hum ([3]; both, 10 µM) [min] | Metabolic Stability 60 min hum [% remain.] ([3]; both, 10 µM) | Plasma Stability T½ [min] hum (in vitro [4]; 10 µM) [min] | Plasma Stability 240 min hum [% remain.] (in vitro [4]; 10 µM) | Plasma Stability T½ [min] mouse (in vitro [1]; mouse) [min] | Plasma Stability 240 min mouse [% remain.] (in vitro [1]; mouse) | Metabolic Stability T½ [min] mouse ([2]; mouse) [min] | Metabolic Stability 60 min mouse [% remain.] ([2]; mouse) | Metabolic Stability T½ [min] hum [3] [min] | Metabolic Stability 60 min hum [% remain.] [3] [% remain.] | Plasma Stability T½ [min] hum (in vitro [4]) [min] | Plasma Stability 240 min hum [% remain.] (in vitro [4]) | half-life at 10 µM ([2]; CD-1, mouse) [h] | half-life at 10 µM [3] [h] | SMILES |
| --- | --- | --- | --- | --- | --- | --- | --- | --- | --- | --- | --- | --- | --- | --- | --- | --- | --- | --- |
| > 240 | 83 | > 60 | 95 | > 60 | 100 | > 240 | 91 | – | – | – | – | – | – | – | – | – | – | CN1CCC[C@H](N2CCN(S(C)(=O)=O)CC2)C(=O)N2C[C@@H](O)C[C@H]2COc2cccc(c2)C1=O [Ex. 583, (4S,6S,10S)-6-hydroxy-14-methyl-10-[4-(methylsulfonyl)piperazino]-2-oxa-8,14-diazatricyclo[14.3.1.0^4,8]icosa-1(20),16,18-triene-9,15-dione] |
| > 240 | 100 | > 60 | 100 | > 60 | 78 | > 240 | 65 | – | – | – | – | – | – | – | – | – | – | CCCCC(=O)N[C@@H]1C[C@H]2COc3ccc(F)cc3C(=O)N(C)[C@H](C(=O)N(C)CCN(C)C)CCC(=O)N(C)CC(=O)N2C1 [Ex. 78, (2R,11S,19aS)-N-[2-(dimethylamino)ethyl]-15-fluoro-N,7,12-trimethyl-5,8,13-trioxo-2-(pentanoylamino)-2,3,6,7,8,9,10,11,12,13,19, 19a-dodecahydro-1H,5H-pyrrolo[2,1-c][1,4,7,12]benzoxatriazacyclopentadecine-11-carboxamide] |
| – | – | – | – | – | – | – | – | > 240 | 93 | > 60 | 94 | > 60 | 76 | > 240 | 100 | – | – | CN1CC(=O)N2C[C@@H](NC(=O)CCC(=O)O)C[C@H]2COc2ccc(F)cc2C(=O)N(C)[C@@H](C(=O)NCc2ccc3ccccc3c2)CCC1=O [Ex. 95] |
| > 240 | 101 | – | 25 | – | 41 | > 240 | 87 | – | – | – | – | – | – | – | – | 0.45 | 0.783 | CN1CCC[C@H](N)C(=O)N2C[C@@H](OCc3ccc(-c4cncnc4)cc3)C[C@H]2COc2cccc(c2)C1=O [Ex. 577, (4S,6S,10S)-10-amino-14-methyl-6-{[4-(5-pyrimidinyl)benzyl]oxy}-2-oxa-8,14-diazatricyclo[14.3.1.0^4,8]icosa-1(20),16,18-triene-9,15-dione] |
| – | 75 | – | 25 | – | 22 | – | 97 | – | – | – | – | – | – | – | – | 0.6 | 0.583 | CCCCC(=O)N[C@H]1C[C@H]2COc3ccc(F)cc3C(=O)N(C)[C@@H](C(=O)NCc3ccc4ccccc4c3)CCC(=O)N(C)CC(=O)N2C1 [Ex. 103, (2S,11R,19aS)-15-fluoro-7,12-dimethyl-N-(2-naphthylmethyl)-5,8,13-trioxo-2-(pentanoylamino)-2,3,6,7,8,9, 10,11,12,13,19,19a-dodecahydro-1H,5H-pyrrolo[2,1-c][1,4,7,12] benzoxatriazacyclopentadecine-11-carboxamide] |
| > 240 | 74 | > 60 | 98 | > 60 | 100 | > 240 | 92 | – | – | – | – | – | – | – | – | – | – | CN1CC(=O)N2C[C@H](NC(=O)CN3CCCC3)C[C@H]2COc2ccc(cc2)C(=O)N(C)[C@H](C(=O)NCc2ccncc2)CCC1=O [Ex. 266, (4S,6R,15S)-11,16-dimethyl-9,12,17-trioxo-N-(4-pyridinylmethyl)-6-{[2-(1-pyrrolidinyl)acetyl]amino}-2-oxa-8,11,16-triazatricyclo[16.2.2.0^4,8]docosa-1(20),18,21-triene-15-carboxamide] |
| > 240 | 88 | > 60 | 95 | > 60 | 91 | > 240 | 96 | – | – | – | – | – | – | – | – | – | – | CN1CC(=O)N2C[C@@H](N)C[C@H]2COc2ccc(F)cc2C(=O)N(C)[C@@H](C(=O)NCc2ccc3ccccc3c2)CCC1=O [Ex. 91, (2S,11R,19aS)-2-amino-15-fluoro-7,12-dimethyl-N-(2-naphthylmethyl)-5,8,13-trioxo-2,3,6,7,8,9,10,11,12,13,19,19a-dodecahydro-1H,5H-pyrrolo[2,1-c][1,4,7,12] benzoxatriazacyclopentadecine-11-carboxamide] |
| > 240 | 98 | > 60 | 84 | – | 47 | > 240 | 80 | – | – | – | – | – | – | – | – | – | 0.85 | CC(C)CN1C[C@H]2C[C@H]1COc1ccc(F)cc1C(=O)N(C)CCC[C@H](NC(=O)Cc1ccccc1)C(=O)N2 [Ex. 407, N-[(1S,15S,18R)-7-fluoro-20-isobutyl-11-methyl-10,16-dioxo-3-oxa-11,17,20-triazatricyclo[16.2.1.0^4,9]henicosa-4,6,8-trien-15-yl]-2-phenylacetamide] |
| > 240 | 89 | > 60 | 98 | > 60 | 100 | > 240 | 82 | – | – | – | – | – | – | – | – | – | – | CCN(CC)[C@H]1C[C@H]2COc3ccc(F)cc3C(=O)N(C)[C@H](C(=O)N3CCCC3)CCC(=O)N(C)CC(=O)N2C1 [Ex. 43, (2S,11S,19aS)-2-(diethylamino)-15-fluoro-7,12-dimethyl-11-(1-pyrrolidinylcarbonyl)-2,3,6,7,9,10,11,12,19,19a-decahydro-1H,5H-pyrrolo [2,1-c] [1,4,7,12]benzoxatriazacyclopentadecine-5,8,13-trione] |
| > 240 | 86 | > 60 | 55 | – | 46 | > 240 | 100 | – | – | – | – | – | – | – | – | – | 0.867 | CN1CCC[C@H](N)C(=O)N2C[C@@H](OCc3ccc(-c4cccnc4)cc3)C[C@H]2COc2cccc(c2)C1=O [Ex. 578, (4S,6S,10S)-10-amino-14-methyl-6-{[4-(3-pyridinyl)benzyl]oxy}-2-oxa-8,14-diazatricyclo[14.3.1.0^4,8]icosa-1(20),16,18-triene-9,15-dione] |
